The values that follow are results of earlier work, collected in patent US8288445B2, “Stable pharmaceutical products” (Nycomed GmbH, priority 2003, dated 2012).

The conditions of this data set: disclosed in U.S. Pat. No. 6,268,533 and WO 00/21487.

In the case of `COc1ccc(C[C@@H](C)NC[C@H](O)c2ccc(O)c(NC=O)c2)cc1.O=C(O)C(O)C(O)C(=O)O` [L-(+)-tartrate salt of R,R-formoterol], the hygroscopicity entry is given as “non-hygroscopic”.
